According to patent US7332504B2, “Heterocyclic substituted aminoazacycles useful as central nervous system agents” (Abbott Laboratories, priority 1999, dated 2008):
Structures can show the parent of a compound that is named as a salt.

Columns and labels:
[1] = molecular target: T1, neuronal nicotinic acetylcholine receptors (Rattus norvegicus, UniProt P09483+P12390); assay: Binding of [3H]-cytisine to neuronal nicotinic acetylcholine receptors, crude synaptic membranes from whole rat brain
T1 construct: crude synaptic membrane preparations from whole rat brain; from tissue; host or cells: whole rat brain, crude synaptic membranes
T1 sequence (P09483 31-630): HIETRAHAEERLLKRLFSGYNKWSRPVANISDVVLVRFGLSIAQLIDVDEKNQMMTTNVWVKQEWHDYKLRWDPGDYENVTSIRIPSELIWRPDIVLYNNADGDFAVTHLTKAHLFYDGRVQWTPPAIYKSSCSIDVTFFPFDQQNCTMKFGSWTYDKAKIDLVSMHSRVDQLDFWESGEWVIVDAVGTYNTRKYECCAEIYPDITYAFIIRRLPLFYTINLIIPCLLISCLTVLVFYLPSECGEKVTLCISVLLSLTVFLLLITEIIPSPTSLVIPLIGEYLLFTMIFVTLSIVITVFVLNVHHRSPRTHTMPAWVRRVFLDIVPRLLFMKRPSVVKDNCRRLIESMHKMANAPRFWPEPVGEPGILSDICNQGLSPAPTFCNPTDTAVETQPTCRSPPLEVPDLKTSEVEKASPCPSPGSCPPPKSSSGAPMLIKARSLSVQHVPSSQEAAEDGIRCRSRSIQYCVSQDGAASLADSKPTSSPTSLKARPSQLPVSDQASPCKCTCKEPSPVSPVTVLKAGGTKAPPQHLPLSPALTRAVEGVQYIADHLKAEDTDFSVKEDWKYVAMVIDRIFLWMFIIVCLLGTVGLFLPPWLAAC
T1 sequence (P12390 25-500): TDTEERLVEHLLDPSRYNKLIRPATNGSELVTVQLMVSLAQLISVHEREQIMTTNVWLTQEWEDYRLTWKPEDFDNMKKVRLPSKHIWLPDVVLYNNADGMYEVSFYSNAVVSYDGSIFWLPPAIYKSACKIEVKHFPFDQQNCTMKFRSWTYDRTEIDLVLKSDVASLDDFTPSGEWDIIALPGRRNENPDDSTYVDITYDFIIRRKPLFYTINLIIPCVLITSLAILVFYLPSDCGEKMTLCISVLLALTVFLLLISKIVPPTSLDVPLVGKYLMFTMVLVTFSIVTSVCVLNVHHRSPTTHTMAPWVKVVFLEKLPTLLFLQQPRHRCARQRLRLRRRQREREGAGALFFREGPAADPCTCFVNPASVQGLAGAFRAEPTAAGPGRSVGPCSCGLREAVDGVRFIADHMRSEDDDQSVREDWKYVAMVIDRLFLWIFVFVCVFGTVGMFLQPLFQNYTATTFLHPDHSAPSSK
Description: The In Vitro protocols for determination of nicotinic acetylcholine channel receptor binding potencies of ligands were determined as follows.
Binding of [^3H]-cytisine ([^3 H]-CYT) to neuronal nicotinic acetylcholine receptors was accomplished using crude synaptic membrane preparations from whole rat brain (Pabreza et al., Molecular Pharmacol., 1990, 39:9). Washed membranes were stored at —80° C. prior to use. Frozen aliquots were slowly thawed and resuspended in 20 volumes of buffer (containing: 120 mM NaCl, 5 mM KCl, 2 mM MgCl2, 2 mM CaCl2 and 50 mM Tris-Cl, pH 7.4 @4° C.). After centrifuging at 20,000×g for 15 minutes, the pellets were resuspended in 30 volumes of buffer.
The test compounds were dissolved in water to make 10 mM stock solutions. Each solution was then diluted (1:100) with buffer (as above) and further taken through seven serial log dilutions of produce test solution from 10^−5 to 10^−11 M.
Homogenate (containing 125-150 μg protein) was added to triplicate tubes containing the range of concentrations of test compound described above and [^3H]-CYT (1.25 nM) in a final volume of 500 μL. Samples were incubated for 60 minutes at 4° C., then rapidly filtered through Whatman GF/B filters presoaked in 0.5% polyethyleneimine using 3×4 mL of ice-cold buffer. The filter are counted in 4 mL of Ecolume® (ICN). Nonspecific binding was determined in the presence of 10 μM (−)-nicotine and values were expressed as a percentage of total binding. IC50 values were determined with the RS-1 (BBN) nonlinear least squares curve-fitting program and IC50 values were converted to Ki values using the Cheng and Prusoff correction ([…].

mouse hot plate paradigm = assay: Mouse hot plate paradigm (analgesia); type: in vivo; conditions: ip, 0.5 h, mice, intraperitoneal, dosed 30 minutes prior to testing, hot plate 55° C., increase in tenth jump latency relative to control, read-out: minimally effective dose (MED)
Description: An in vivo protocol was utilized to determine the effectiveness of nicotinic acetylcholine receptor ligands as analgesic agents in the mouse hot plate paradigm.
Separate groups of mice, (n=8/group) were utilized for each dose group. All drugs were administered by the intraperitoneal route of administration. Test drugs were dissolved in water to make a 6.2 mM stock solution. Animals were dosed with this solution (10 mL/kg body weight) for a 62 micromol/kg dose. Lower doses were administered similarly, following serial dilution of the stock solution in half-log increments. Animals were dosed 30 minutes prior to testing in the hot plate. The hot-plate utilized was an automated analgesia monitor (Model #AHP16AN, Omnitech Electronics, Inc. of Columbus, Ohio). The temperature of the hot plate was maintained at 55° C. and a cut-off time of 180 seconds was utilized. Latency until the tenth jump was recoreded as the dependent measure. An increase in the tenth jump latency relative to the control was considered an effect.

Which melting point does the source give for N[C@@H]1CCN(c2cncc(C(F)(F)F)c2)C1 (as salt: hydrochloride) [Example 11, (3R)-1-[5-(trifluoromethyl)-3-pyridinyl]pyrrolidinylamine dihydrochloride] here?
The melting point was 234 to 235 °C.

For CN(C)[C@H]1CCN(c2ccc(Cl)nc2)C1 (as salt: benzenesulfonate) [Example 3, N-[(3S)-1-(6-chloro-3-pyridinyl)pyrrolidinyl]-N,N-dimethylamine 4-methylbenzenesulfonate], which melting point is on record?
The melting point was 190 to 191.5 °C.

Which melting point does the source give for N[C@@H]1CCN(c2cncc([N+](=O)[O-])c2)C1 (as salt: fumarate) [Example 31, (3R)-1-(5-nitro-3-pyridinyl)pyrrolidinylamine fumarate] here?
The melting point was 212 to 213 °C.

For CN[C@H]1CCN(c2cncc(C(F)(F)F)c2)C1 (as salt: hydrochloride) [Example 14, N-methyl-N-{(3S)-1-[5-(trifluoromethyl)-3-pyridinyl]pyrrolidinyl}amine hydrochloride], which melting point is on record?
Its melting point is 240 to 243 °C (dec.).

With CN[C@@H]1CCCN(c2ccc(Cl)nc2)C1.Cl.Cl [Example 48, N-[(3R)-1-(6-chloro-3-pyridinyl)piperidin-3-yl]-N-methylamine dihydrochloride] as the compound, how does the Ki [1] read?
The Ki was 166 nM.

And the melting point?
Its melting point is 103 to 105 °C.

Which melting point does the source give for CN[C@H]1CCCN(c2ccc(Cl)nc2)C1 (as salt: hydrochloride) [Example 46, N-[(3S)-1-(6-chloro-3-pyridinyl)piperidin-3-yl]-N-methylamine dihydrochloride] here?
The melting point was 120 to 122 °C.

Which melting point does the source give for N[C@H]1CCCN(c2cccnc2)C1 (as salt: benzenesulfonate) [Example 41, (3S)-1-(3-pyridinyl)piperidinylamine bis(4-methylbenzenesulfonate)] here?
Its melting point is 64 to 66 °C.

With N[C@H]1CCN(c2ccc(Cl)nc2)C1 (as salt: hydrochloride) [Example 2, (3S)-1-(6-chloro-3-pyridinyl)pyrrolidinylamine dihydrochloride] as the compound, how does the melting point read?
Its melting point is greater than 250 °C.

Which melting point does the source give for CN[C@H]1CCN(c2cncc([N+](=O)[O-])c2)C1 (as salt: fumarate) [Example 30, N-methyl-N-[(3S)-1-(5-nitro-3-pyridinyl)pyrrolidinyl]amine fumarate] here?
Its melting point is 183 to 185 °C.

For N[C@H]1CCN(c2cncc([N+](=O)[O-])c2)C1 (as salt: fumarate) [Example 29, (3S)-1-(5-nitro-3-pyridinyl)pyrrolidinylamine fumarate], which melting point is on record?
The melting point was 213 to 214 °C.

What does the source list for CN[C@H]1CCCN(c2cnc(Cl)c(C)c2)C1.Cl [Example 49, N-[(3S)-1-(6-chloro-5-methyl-3-pyridinyl)piperidin-3-yl]-N-methylamine hydrochloride]?
Ki [1]: 4.8 nM; minimal effective dose (mouse hot plate paradigm): 62 µmol/kg; melting point: 75 to 77 °C

What does the source list for N[C@@H]1CCN(c2cnc(Cl)c(Cl)c2)C1 [Example 21, (3R)-1-(5,6-dichloro-3-pyridinyl)pyrrolidinylamine dihydrochloride]?
Ki [1]: 0.13 nM; minimal effective dose (mouse hot plate paradigm): 6.2 µmol/kg

For CN[C@H]1CCCN(c2ccc(Cl)nc2)C1 [Example 46, N-[(3S)-1-(6-chloro-3-pyridinyl)piperidin-3-yl]-N-methylamine dihydrochloride], which Ki [1] is on record?
The Ki was 60 nM.

And the minimal effective dose (mouse hot plate paradigm)?
Its minimal effective dose is 62 µmol/kg.

Which Ki [1] does the source give for CN[C@@H]1CCN(c2cnc(Cl)c(Cl)c2)C1 [Example 22, N-[(3R)-1-(5,6-dichloro-3-pyridinyl)pyrrolidinyl]-N-methylamine hydrochloride] here?
Its Ki is 13 nM.

What about the minimal effective dose (mouse hot plate paradigm) of the same compound?
The minimal effective dose was 19 µmol/kg.

Which Ki [1] does the source give for CN[C@@H]1CCN(c2cnc(Cl)c(C)c2)C1 [Example 16, N-[(3R)-1-(6-chloro-5-methyl-3-pyridinyl)pyrrolidinyl]-N-methylamine dihydrochloride] here?
Its Ki is 5.1 nM.

And the minimal effective dose (mouse hot plate paradigm)?
Its minimal effective dose is 1.9 µmol/kg.

Which melting point does the source give for CN[C@@H]1CCN(c2ccc(Cl)nc2)C1 (as salt: hydrochloride) [Example 5, N-[(3R)-1-(6-chloro-3-pyridinyl)pyrrolidinyl]-N-methylamine hydrochloride] here?
The melting point was 265 °C (dec.).

Which Ki [1] does the source give for NC1CCN(c2ccc(Cl)nc2)C1 (centres unmarked) [Example 7, 1-(6-chloro-3-pyridinyl)-3-pyrrolidinylamine 4-methylbenzenesulfonate] here?
The Ki was 0.12 nM.

What about the minimal effective dose (mouse hot plate paradigm) of the same compound?
The minimal effective dose was 6.2 µmol/kg.

Which Ki [1] does the source give for CN[C@H]1CCN(c2cnc(Cl)c(C)c2)C1 [Example 18, N-[(3S)-1-(6-chloro-5-methyl-3-pyridinyl)pyrrolidinyl]-N-methylamine dihydrochloride] here?
The Ki was 0.58 nM.

And the minimal effective dose (mouse hot plate paradigm)?
Its minimal effective dose is 6.2 µmol/kg.

Which melting point does the source give for CN[C@@H]1CCN(c2cncc(C(F)(F)F)c2)C1 (as salt: hydrochloride) [Example 12, N-methyl-N-{(3R)-1-[5-(trifluoromethyl)-3-pyridinyl]pyrrolidinyl}amine hydrochloride] here?
The melting point was 265 °C (dec.).

Which melting point does the source give for CN[C@@H]1CCN(c2cncc([N+](=O)[O-])c2)C1 (as salt: fumarate) [Example 32, N-methyl-N-[(3R)-1-(5-nitro-3-pyridinyl)pyrrolidinyl]amine fumarate] here?
The melting point was 184 to 185 °C.

For CN[C@H]1CCN(c2ccc(Cl)nc2)C1 (as salt: hydrochloride) [Example 1, N-[(3S)-1-(6-chloro-3-pyridinyl)pyrrolidinyl]-N-methylamine hydrochloride], which melting point is on record?
The melting point was greater than 250 °C.

With N[C@@H]1CCN(c2ccc(Cl)nc2)C1 (as salt: benzenesulfonate) [Example 4, (3R)-1-(6-chloro-3-pyridinyl)pyrrolidinylamine 4-methylbenzenesulfonate] as the compound, how does the melting point read?
Its melting point is 224.5 to 225.5 °C.

For CN[C@H]1CCN(c2cnc(Cl)c(Cl)c2)C1 [Example 20, N-[(3S)-1-(5,6-dichloro-3-pyridinyl)pyrrolidinyl]-N-methylamine hydrochloride], which Ki [1] is on record?
Its Ki is 0.59 nM.

And the minimal effective dose (mouse hot plate paradigm)?
The minimal effective dose was 19 µmol/kg.

Which melting point does the source give for N[C@H]1CCN(c2cncc(C(F)(F)F)c2)C1 (as salt: hydrochloride) [Example 13, (3S)-1-[5-(trifluoromethyl)-3-pyridinyl]pyrrolidinylamine dihydrochloride] here?
Its melting point is 235 to 236 °C.

With N[C@H]1CCCN(c2ccc(Cl)nc2)C1 (as salt: benzenesulfonate) [Example 45, (3S)-1-(6-chloro-3-pyridinyl)piperidinylamine bis(4-methylbenzenesulfonate)] as the compound, how does the melting point read?
Its melting point is 182 to 184 °C.
